{"source": "patent US10059733B2", "about": "(NUCORION PHARMACEUTICALS, INC., priority 2014, dated 2018)", "key": {"HCV luciferase replicon [1]": {"tested_on": "HCV luciferase replicon", "test": "IC50 assay: inhibition of the HCV luciferase replicon in Huh7 cells", "type": "cell-based", "method": "After 48 h of treatment at 37° C., the media in each well was removed, the cells were gently washed once with phosphate buffered saline (PBS) and subsequently lysed by the addition of Glo Lysis Buffer (Promega). After a 15 min incubation at room temperature to allow for complete cell lysis, Bright-Glo luciferase reagent (Promega) was added to each well and the relative luciferase activity in each well was determined by using a Glowmax 96 microplate luminometer (Promega).\nIC50 values determined using the above methods for inhibition of the HCV luciferase replicon in Huh7 cells are set forth in Table 1.\nAll compounds were purified by HPLC."}, "Huh7": {"tested_on": "Huh7", "test": "TC50 assay with human cancer cell lines, 96 h: Huh7", "type": "cell-based", "details": "Huh-7, 96 h, read-out: TC50 Huh7 (μM)", "quoted_text": "(§3) Huh7 cells were maintained at 37° C. in a humidified atmosphere at 5% CO2 in DMEM containing 10% FBS. […] The cells were then treated with each compound at concentrations ranging from 500 μM to 0 μM in triplicate in DMEM media containing 2% FBS and 0.5% DMSO and without phenol red. After 48 h of treatment at 37° C., the relative number of living cells in each well was determined by using the CellTiter 96 system (Promega) according to the manufacturer's instructions. The 3-(4,5-dimethylthiazol-2-yl)-5-(3-carboxymethoxyphenyl)-2-(4-sulfophenyl)-2H-tetrazolium (MTS) and phenazine methosulfate (PMS) reagents were added to each well of the 96-well plate and the plate was incubated at 37° C. for approximately 2 h. The absorbance at 490 nm and 650 nm in each well was then determined by using a Flexstation 3 microplate reader (Molecular Dynamics). The absorbance determined at 650 nm was then subtracted from the absorbance determined at 490 nm to correct for light scattering. The corrected absorbance values representing the relative number of live cells in each condition were then plotted as a function of compound concentration, and the data were then fit to the following sigmoidal Emax equation by using Kaleidagraph: y=(Emax*x^Slope)/(TC50^Slope+x^Slope) where y is the relative corrected absorbance value, Emax is the maximum relative inhibition, x is the compound concentration, TC50 is the concentration of the compound at which the total cell population is reduced by 50%, and Slope is the slope of the curve.\n(§4) Huh7, HEPG2, HEK293, MCF-7 and BxPC3 cell lines were maintained at 37° C. in a humidified atmosphere at 5% CO2 in DMEM containing 10% FBS. […] The cells were then treated with each compound at concentrations ranging from 500 μM to 0 μM in triplicate in DMEM media containing 2% FBS and 0.5% DMSO and without phenol red."}, "HEPG2": {"tested_on": "HEPG2", "test": "TC50 assay with human cancer cell lines, 96 h: HEPG2", "type": "cell-based", "details": "HepG2, 96 h, read-out: TC50 HEPG2 (μM)", "quoted_text": "as §3, §4"}, "MCF-7": {"tested_on": "MCF-7", "test": "TC50 assay with human cancer cell lines, 96 h: MCF-7", "type": "cell-based", "details": "MCF7, 96 h, read-out: TC50 MCF-7 (μM)", "quoted_text": "as §3, §4"}, "Huh7 cells": {"tested_on": "Huh7 cells", "test": "Cell transport: cytotoxicity in Huh7 cells with or without ENT1 inhibitor NBTI", "details": "for CC50: Homo sapiens, Huh-7, 48 h", "method": "(§1) Huh7 cells were maintained at 37° C. in a humidified atmosphere at 5% CO2 in DMEM containing 10% FBS. […] The cells were then treated with each compound at concentrations ranging from 500 μM to 0 μM in triplicate in DMEM media containing 2% FBS and 0.5% DMSO and without phenol red. After 48 h of treatment at 37° C., the relative number of living cells in each well was determined by using the CellTiter 96 system (Promega) according to the manufacturer's instructions. The 3-(4,5-dimethylthiazol-2-yl)-5-(3-carboxymethoxyphenyl)-2-(4-sulfophenyl)-2H-tetrazolium (MTS) and phenazine methosulfate (PMS) reagents were added to each well of the 96-well plate and the plate was incubated at 37° C. for approximately 2 h. The absorbance at 490 nm and 650 nm in each well was then determined by using a Flexstation 3 microplate reader ([…]). The absorbance determined at 650 nm was then subtracted from the absorbance determined at 490 nm to correct for light scattering. The corrected absorbance values representing the relative number of live cells in each condition were then plotted as a function of compound concentration, and the data were then fit to the following sigmoidal Emax equation by using Kaleidagraph: y=(Emax*x^Slope)/(TC50^Slope+x^Slope) where y is the relative corrected absorbance value, Emax is the maximum relative inhibition, x is the compound concentration, TC50 is the concentration of the compound at which the total cell population is reduced by 50%, and Slope is the slope of the curve.\n(§2) To this end, Huh7 cells or PK9 cells were seeded in 96-well plates at a density of 5,000 cells/well or 2,500 cells/well, respectively, and the plates were incubated at 37° C. for 24 h to allow for cell attachment. The media was then removed from the plates and replaced with media containing 2% FBS, 0.5% DMSO and 10 μM NBTI. […] Subsequently, the cells were treated with each compound at final concentrations ranging from 500 μM to 0 μM in triplicate in media containing 2% FBS, 0.5% DMSO and 10 μM NBTI. […] The TC50 values of each compound in the presence or absence of the ENT1 inhibitor were then compared."}, "PK9 cells": {"tested_on": "PK9 cells", "test": "Cell transport: cytotoxicity in PK9 cells with or without ENT1 inhibitor NBTI", "details": "Homo sapiens, PK9, 48 h", "method": "as §1, §2"}, "HCV luciferase replicon [2]": {"tested_on": "HCV luciferase replicon", "test": "Isobologram analysis of synergism with antiviral compound in HCV luciferase replicon", "type": "cell-based", "method": "Isobologram analysis was conducted to assess the potential synergistic interaction of representative disclosed compounds with representative antiviral compounds. The isobolgram analysis was conducted as previously described by Chou and Talalay (see Chou T. C. and Talalay P. “Analysis of combined drug effects: a new look at a very old problem.” Trends Pharmacol Sci 1983; 4:450-4; and Chou T. C. and Talalay P. “Quantitative analysis of dose-effect relationships: the combined effects of multiple drugs or enzyme inhibitors.” Adv Enzyme Regul 1984; 22:27-55; both of which are incorporated herein by reference in their entirety). The definitions of synergism are those described by Chou (see Chou, T. C. (2006) Theoretical basis, experimental design, and computerized simulation of synergism and antagonism in drug combination studies. Pharmacol Rev. 58(3):621-81, which is incorporated herein by reference in its entirety).\nIn the synergism studies described herein, the antiviral compound shown in Table 6 was assessed in combination with a representative disclosed compound, Compound 1."}, "genotype 1b HCV": {"tested_on": "genotype 1b HCV", "test": "Oral administration to HCV-infected chimpanzee, viral load (genotype 1b)", "type": "in vivo", "details": "Chimpanzee I", "method": "Via oral gavage, two HCV-infected chimpanzees I (male, 56.49 kg and 11 years old; genotype 1b HCV) and II (male, 61.91 kg and 34 years old; genotype 1a HCV) each received a single dosage of 200 mg of Compound 1 in Formulation I while the HCV-infected chimpanzee III (male, 56.19 kg and 18 years old; genotype 1a HCV) was administered a single dosage of 260 mg of the non-phosphorylated analog of Compound 1 (Table 1) in Formulation I. After 12 hours, the HCV viral titer decreased from 24,100 to 10,200 IU/ml (or 58% drop) in Chimpanzee I, from 38,500 to 27,000 IU/ml (or 30% drop) in Chimpanzee II, and from 154,000 to 142,000 IU/ml (or 8% drop) in Chimpanzee III. […] All animals were fasted overnight prior to dosing and a minimum of 2 hours prior to scheduled blood sample collections. Viral load determinations were performed on plasma samples using the HCV TaqMan assay (COBAS® AmpliPrep/COBAS® TaqMan® HCV Test, Version 2, Test Code 1220) for quantitative analysis. […] There were no adverse effects, illness, nor distress seen with the three chimpanzees during the study requiring veterinarian intervention."}, "[3]": {"details": "Compound 1 0.2 nM + BMS-790052 0.010 nM"}, "[4]": {"details": "Compound 1 0.4 nM + BMS-790052 0.008 nM"}, "[5]": {"details": "Compound 1 7.1 nM + BMS-790052 0.006 nM"}, "[6]": {"details": "Compound 1 14.2 nM + BMS-790052 0.004 nM"}}, "note": "Read-outs that look alike come from different tables or passages of the source.", "data": [{"compound": "CCCC(CCC)C(=O)Nc1ccn([C@@H]2O[C@H](CO[P@@](=O)(N[C@@H](C)C(=O)OC(C)C)Oc3ccccc3)[C@@H](O)C2(F)F)c(=O)n1", "note": "[Compound 1, (S)-isopropyl 2-(((S)-(((2R,3R,5R)-4,4-difluoro-3-hydroxy-5-(2-oxo-4-(2-propylpentanamido)pyrimidin-1(2H)-yl)tetrahydrofuran-2-yl)methoxy)(phenoxy)phosphoryl)amino)propanoate]", "values": [{"measurement": "IC50", "setting": "HCV luciferase replicon [1]; Hepatitis C virus, Huh-7, 48 h", "value": "0.0884 ± 0.0133", "unit": "µM"}, {"measurement": "Therapeutic Index (TC50/IC50)", "setting": "HCV luciferase replicon [1]; TC50 in Huh7 / IC50 HCV replicon, 48 h", "value": 198}, {"measurement": "CC50", "setting": "Huh7", "value": "3.28 ± 0.57", "unit": "µM"}, {"measurement": "CC50", "setting": "HEPG2", "value": "1.31 ± 0.21", "unit": "µM"}, {"measurement": "CC50", "setting": "MCF-7", "value": "1.76 ± 0.67", "unit": "µM"}, {"measurement": "CC50", "setting": "Huh7 cells; read-out: TC50 (μM) in Huh7 cells at 48 h With NBTI", "value": 16.4, "unit": "µM"}, {"measurement": "CC50", "setting": "Huh7 cells; read-out: TC50 (μM) in Huh7 cells at 48 h Without NBTI", "value": 17.4, "unit": "µM"}, {"measurement": "requirement of the ENT1 transporter for cell entry", "setting": "Huh7 cells; conclusion from TC50 with/without 10 μM NBTI in Huh7 and PK9 cells", "value": "do not require the ENT1 transporter for cell entry"}, {"measurement": "CC50", "setting": "PK9 cells; read-out: TC50 (μM) in PK9 cells at 48 h With NBTI", "value": 16.9, "unit": "µM"}, {"measurement": "CC50", "setting": "PK9 cells; read-out: TC50 (μM) in PK9 cells at 48 h Without NBTI", "value": 25.2, "unit": "µM"}, {"measurement": "Combination Index", "setting": "HCV luciferase replicon [2]; [3]", "value": 0.505}, {"measurement": "level of synergism", "setting": "HCV luciferase replicon [2]; [3]", "value": "synergism"}, {"measurement": "Combination Index", "setting": "HCV luciferase replicon [2]; [4]", "value": 0.410}, {"measurement": "level of synergism", "setting": "HCV luciferase replicon [2]; [4]", "value": "synergisn"}, {"measurement": "Combination Index", "setting": "HCV luciferase replicon [2]; [5]", "value": 0.468}, {"measurement": "level of synergism", "setting": "HCV luciferase replicon [2]; [5]", "value": "synergism"}, {"measurement": "Combination Index", "setting": "HCV luciferase replicon [2]; [6]", "value": 0.535}, {"measurement": "level of synergism", "setting": "HCV luciferase replicon [2]; [6]", "value": "synergism"}, {"measurement": "Combination Index", "setting": "HCV luciferase replicon [2]; Compound 1 42.3 nM, BMS-790052 0 nM", "value": 1.000}, {"measurement": "interaction of Compound 1 with BMS-790052 in the inhibition of the HCV luciferase replicon", "setting": "HCV luciferase replicon [2]; co-treatment with NS5A inhibitor BMS-790052", "value": "synergism"}, {"measurement": "concentration of the single agent on the IC50 isobologram (Combination Index 1.000)", "setting": "HCV luciferase replicon [2]; compound alone, other compound 0 nM", "value": 42.3, "unit": "nM"}, {"measurement": "drop of HCV viral titer after 12 hours", "setting": "genotype 1b HCV; single oral dosage 200 mg", "value": 58, "unit": "%"}, {"measurement": "HCV viral titer after 12 hours", "setting": "genotype 1b HCV; single oral dosage 200 mg in Formulation I, titer before 24,100 IU/ml", "value": "10,200 IU/ml"}]}]}
